Test results taken from ChEMBL document CHEMBL3751764, “Synthesis and in vitro antiproliferative activity of novel pyrazolo[3,4-d]pyrimidine derivatives” (Medchemcomm, 2015).
The source made the active and inactive calls. The rule behind the calls is not given here.

Assays:
[1] = Cytotoxicity against human HCT116 cells after 72 hrs by SRB assay; type: functional; conditions: HCT-116, 72 h
[2] = Cytotoxicity against human RXF393 cells after 72 hrs by SRB assay; type: functional; conditions: RXF 393, 72 h
[3] = Cytotoxicity against human UO31 cells after 72 hrs by SRB assay; type: functional; conditions: UO-31, 72 h
[4] = test system: A549; experiment: Cell cycle arrest in human A549 cells assessed as accumulation at G0/G1 phase at IC50 after 48 hrs by FACS flow cytometric analysis relative to control; type: functional
[5] = Cytotoxicity against human MOLT4 cells after 72 hrs by SRB assay; type: functional; conditions: MOLT-4, 72 h
[6] = Cytotoxicity against human SNB19 cells after 72 hrs by SRB assay; type: functional; conditions: SNB-19, 72 h
[7] = Cytotoxicity against human SW620 cells after 72 hrs by SRB assay; type: functional; conditions: SW-620, 72 h
[8] = test system: MDA-MB-468; experiment: Cytotoxicity against human MDA-MB-468 cells after 72 hrs by SRB assay; type: functional; conditions: MDA-MB-468, 72 h
[9] = Cytotoxicity against human NCI-ADR-RES cells after 72 hrs by SRB assay; type: functional
[10] = test system: KM12; experiment: Cytotoxicity against human KM12 cells after 72 hrs by SRB assay; type: functional; conditions: KM12, 72 h
[11] = test system: A549; experiment: Upregulation of p27kip1 expression in human A549 cells by Western blotting analysis; type: functional
[12] = test system: SK-MEL-5; experiment: Cytotoxicity against human SK-MEL-5 cells after 72 hrs by SRB assay; type: functional; conditions: SK-MEL-5, 72 h
[13] = test system: M14; experiment: Cytotoxicity against human M14 cells after 72 hrs by SRB assay; type: functional; conditions: M14, 72 h
[14] = Cytotoxicity against human HCC2998 cells after 72 hrs by SRB assay; type: functional; conditions: HCC 2998, 72 h
[15] = test system: SK-MEL-2; experiment: Cytotoxicity against human SK-MEL-2 cells after 72 hrs by SRB assay; type: functional; conditions: SK-MEL-2, 72 h
[16] = test system: T47D; experiment: Cytotoxicity against human T47D cells after 72 hrs by SRB assay; type: functional
[17] = Cytotoxicity against human IGROV1 cells after 72 hrs by SRB assay; type: functional; conditions: IGROV-1, 72 h
[18] = Cytotoxicity against human Hs 578T cells after 72 hrs by SRB assay; type: functional
[19] = Cytotoxicity against human Caki1 cells after 72 hrs by SRB assay; type: functional; conditions: CAKI-1, 72 h
[20] = test system: MCF7; experiment: Cytotoxicity against human MCF7 cells after 72 hrs by SRB assay; type: functional, cell-based; conditions: MCF7, 72 h
[21] = Cytotoxicity against human LOXIMVI cells after 72 hrs by SRB assay; type: functional; conditions: LOX IMVI
[22] = Cytotoxicity against human SF268 cells after 72 hrs by SRB assay; type: functional; conditions: SF-268, 72 h
[23] = Cytotoxicity against human HOP92 cells after 72 hrs by SRB assay; type: functional; conditions: HOP-92, 72 h
[24] = Cytotoxicity against human SF295 cells after 72 hrs by SRB assay; type: functional; conditions: SF-295, 72 h
[25] = Cytotoxicity against human OVCAR3 cells after 72 hrs by SRB assay; type: functional; conditions: OVCAR-3, 72 h
[26] = Cytotoxicity against human RPMI8226 cells after 72 hrs by SRB assay; type: functional; conditions: RPMI-8226, 72 h
[27] = Cytotoxicity against human BT549 cells after 72 hrs by SRB assay; type: functional; conditions: BT-549, 72 h
[28] = test system: 786-0; experiment: Cytotoxicity against human 786-0 cells after 72 hrs by SRB assay; type: functional; conditions: 786-0, 72 h
[29] = test system: NCI-H522; experiment: Cytotoxicity against human NCI-H522 cells after 72 hrs by SRB assay; type: functional; conditions: NCI-H522, 72 h
[30] = test system: MDA-MB-231; experiment: Cytotoxicity against human MDA-MB-231 cells after 72 hrs by SRB assay; type: functional; conditions: MDA-MB-231, 72 h
[31] = Cytotoxicity against human COLO205 cells after 72 hrs by SRB assay; type: functional; conditions: COLO 205, 72 h
[32] = test system: SR; experiment: Cytotoxicity against human SR cells after 72 hrs by SRB assay; type: functional
[33] = Cytotoxicity against human UACC257 cells after 72 hrs by SRB assay; type: functional; conditions: UACC-257, 72 h
[34] = Cytotoxicity against human OVCAR8 cells after 72 hrs by SRB assay; type: functional; conditions: OVCAR-8, 72 h
[35] = biological target: Epidermal growth factor receptor (Homo sapiens) (UniProt P00533); experiment: Inhibition of human EGFR at 10 uM after 20 to 40 mins by liquid scintillation counting analysis in presence of […]
[36] = read-out: LC50 (the source's name)

Sequence of Epidermal growth factor receptor (Homo sapiens) (P00533 whole entry): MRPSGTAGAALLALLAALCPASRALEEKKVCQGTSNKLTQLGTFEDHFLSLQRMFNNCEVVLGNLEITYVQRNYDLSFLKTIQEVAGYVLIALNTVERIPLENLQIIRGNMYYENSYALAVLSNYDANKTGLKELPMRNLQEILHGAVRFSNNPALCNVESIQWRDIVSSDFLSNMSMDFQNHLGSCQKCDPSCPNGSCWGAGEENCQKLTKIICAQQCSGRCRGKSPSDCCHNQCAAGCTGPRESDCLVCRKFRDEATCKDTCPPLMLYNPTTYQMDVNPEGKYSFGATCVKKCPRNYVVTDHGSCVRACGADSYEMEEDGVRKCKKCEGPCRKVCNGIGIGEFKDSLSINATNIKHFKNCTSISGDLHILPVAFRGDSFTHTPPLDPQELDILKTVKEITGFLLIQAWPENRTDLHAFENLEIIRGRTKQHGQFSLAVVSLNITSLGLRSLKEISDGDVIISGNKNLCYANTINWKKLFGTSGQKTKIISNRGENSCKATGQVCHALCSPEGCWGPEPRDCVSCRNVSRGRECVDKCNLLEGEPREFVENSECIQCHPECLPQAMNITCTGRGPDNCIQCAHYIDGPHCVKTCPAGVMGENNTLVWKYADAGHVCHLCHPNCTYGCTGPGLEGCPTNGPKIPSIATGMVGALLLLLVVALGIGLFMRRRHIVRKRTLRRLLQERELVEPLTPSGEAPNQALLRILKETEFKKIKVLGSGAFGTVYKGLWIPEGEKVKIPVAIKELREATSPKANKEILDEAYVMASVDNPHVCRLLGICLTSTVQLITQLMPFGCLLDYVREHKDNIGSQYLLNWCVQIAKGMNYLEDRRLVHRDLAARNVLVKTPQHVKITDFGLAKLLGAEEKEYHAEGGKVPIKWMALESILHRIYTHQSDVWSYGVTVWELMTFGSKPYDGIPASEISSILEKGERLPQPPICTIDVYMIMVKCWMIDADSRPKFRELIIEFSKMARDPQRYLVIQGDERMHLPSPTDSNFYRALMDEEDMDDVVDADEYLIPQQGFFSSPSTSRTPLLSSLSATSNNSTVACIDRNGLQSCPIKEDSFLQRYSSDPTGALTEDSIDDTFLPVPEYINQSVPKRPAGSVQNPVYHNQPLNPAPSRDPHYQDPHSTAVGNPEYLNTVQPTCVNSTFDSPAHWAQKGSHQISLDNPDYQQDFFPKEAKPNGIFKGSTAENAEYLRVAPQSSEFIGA

With `O=C(NC1CCCCC1)c1ccc(Nc2ncnc3c2cnn3-c2ccccc2)cc1` the GI50 [1] was 4.01 µM, the TGI [1] was > 100 µM and the CC50 [1, 36] was > 100 µM. For the same compound, the GI50 [2] was 2.43 µM, the TGI [2] was 9.33 µM and the CC50 [2, 36] was 56.9 µM. For the same compound, the GI50 [3] was 23.9 µM, the TGI [3] was > 100 µM and the CC50 [3, 36] was > 100 µM. The Activity [4] was 11.9%, the GI50 [5] was 75.6 µM and the TGI [5] was > 100 µM. The CC50 [5, 36] was > 100 µM, the GI50 [6] was 3.82 µM and the TGI [6] was 18.9 µM. The CC50 [6, 36] was > 100 µM, the GI50 [7] was > 100 µM and the TGI [7] was > 100 µM. The CC50 [7, 36] was > 100 µM, the GI50 [8] was 21.7 µM and the TGI [8] was > 100 µM. The CC50 [8, 36] was > 100 µM, the GI50 [9] was 7.06 µM and the TGI [9] was > 100 µM. The CC50 [9, 36] was > 100 µM, the GI50 [10] was 57.8 µM and the TGI [10] was > 100 µM. For the same compound, the CC50 [10, 36] was > 100 µM, the “fold change (FC)” value [11] was 3 and the GI50 [12] was 21.7 µM. The TGI [12] was > 100 µM, the CC50 [12, 36] was > 100 µM and the GI50 [13] was 18.3 µM. The TGI [13] was > 100 µM, the CC50 [13, 36] was > 100 µM and the GI50 [14] was > 100 µM. For the same compound, the TGI [14] was > 100 µM, the CC50 [14, 36] was > 100 µM and the GI50 [15] was 13.6 µM. For the same compound, the TGI [15] was 36.2 µM, the CC50 [15, 36] was 96.3 µM and the GI50 [16] was 20.2 µM. The TGI [16] was > 100 µM, the CC50 [16, 36] was > 100 µM and the GI50 [17] was 14.4 µM. For the same compound, the TGI [17] was 65.9 µM, the CC50 [17, 36] was > 100 µM and the GI50 [18] was 3.37 µM. The TGI [18] was 34.2 µM, the CC50 [18, 36] was > 100 µM and the GI50 [19] was 14 µM. The TGI [19] was > 100 µM, the CC50 [19, 36] was > 100 µM and the GI50 [20] was 74.1 µM. The LC50 [20] was > 100 µM, the TGI [20] was > 100 µM and the GI50 [21] was 4.49 µM. For the same compound, the TGI [21] was 22.3 µM, the CC50 [21, 36] was > 100 µM and the GI50 [22] was 5.85 µM. The TGI [22] was > 100 µM, the CC50 [22, 36] was > 100 µM and the GI50 [23] was 2.53 µM. For the same compound, the TGI [23] was 8.29 µM, the CC50 [23, 36] was 86.6 µM and the GI50 [24] was 2.98 µM. For the same compound, the TGI [24] was 13.3 µM, the CC50 [24, 36] was 43.1 µM and the GI50 [25] was 14.3 µM. For the same compound, the TGI [25] was > 100 µM, the CC50 [25, 36] was > 100 µM and the GI50 [26] was > 100 µM. For the same compound, the TGI [26] was > 100 µM, the CC50 [26, 36] was > 100 µM and the GI50 [27] was 5.69 µM. For the same compound, the TGI [27] was 26.4 µM, the CC50 [27, 36] was 91.9 µM and the GI50 [28] was 3.47 µM. For the same compound, the TGI [28] was 18.3 µM, the CC50 [28, 36] was 65.5 µM and the GI50 [29] was 6.4 µM. For the same compound, the TGI [29] was > 100 µM, the CC50 [29, 36] was > 100 µM and the GI50 [30] was 5.09 µM. For the same compound, the TGI [30] was 21.9 µM, the CC50 [30, 36] was 80.6 µM and the GI50 [31] was 12.5 µM. The TGI [31] was > 100 µM, the CC50 [31, 36] was > 100 µM and the GI50 [32] was 11.6 µM. The TGI [32] was 49.1 µM, the CC50 [32, 36] was > 100 µM and the GI50 [33] was 6.42 µM. For the same compound, the TGI [33] was > 100 µM, the CC50 [33, 36] was > 100 µM and the GI50 [34] was 3.87 µM. For the same compound, the TGI [34] was 19.3 µM and the CC50 [34, 36] was > 100 µM.
For `Cc1ccc2nc(Nc3ncnc4c3cnn4-c3ccccc3)sc2c1`, the inhibition [35] was “inactive”.
